According to PubChem BioAssay (NCI):
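Cells were grown in 96-well plates and exposed to each compound for 48 hours at five concentrations; endpoints were interpolated linearly between bracketing concentrations, or set to the highest concentration if not reached. TGI: total growth inhibition.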

What was measured:
Assay in all cases: NCI-60 cell line screen, 48 h
[1] = test system: 786-0 renal
[2] = test system: A498 renal
[3] = test system: A549 NSCLC
[4] = test system: ACHN renal
[5] = test system: BT-549 breast
[6] = test system: CAKI-1 renal
[7] = test system: CCRF-CEM leukemia
[8] = test system: COLO 205 colon
[9] = test system: DU-145 prostate
[10] = test system: EKVX NSCLC
[11] = test system: HCC-2998 colon
[12] = test system: HCT-116 colon
[13] = test system: HCT-15 colon
[14] = test system: HL-60(TB) leukemia
[15] = test system: HOP-62 NSCLC
[16] = test system: HOP-92 NSCLC
[17] = test system: HT29 colon
[18] = test system: IGROV1 ovarian
[19] = test system: K-562 leukemia
[20] = test system: KM12 colon
[21] = test system: LOX IMVI melanoma
[22] = test system: M14 melanoma
[23] = test system: MCF7 breast
[24] = test system: MDA-MB-231 breast
[25] = test system: MDA-MB-435
[26] = test system: MDA-N
[27] = test system: MOLT-4 leukemia
[28] = test system: NCI-H226 lung
[29] = test system: NCI-H23 lung
[30] = test system: NCI-H522 lung
[31] = test system: NCI/ADR-RES ovarian
[32] = test system: OVCAR-3 ovarian
[33] = test system: OVCAR-4 ovarian
[34] = test system: OVCAR-5 ovarian
[35] = test system: OVCAR-8 ovarian
[36] = test system: PC-3 prostate
[37] = test system: RPMI-8226 leukemia
[38] = test system: SF-268 CNS
[39] = test system: SF-295 CNS
[40] = test system: SF-539 CNS
[41] = test system: SK-MEL-2 melanoma
[42] = test system: SK-MEL-28 melanoma
[43] = test system: SK-MEL-5 melanoma
[44] = test system: SK-OV-3 ovarian
[45] = test system: SN12C renal
[46] = test system: SNB-19 CNS
[47] = test system: SR leukemia
[48] = test system: SW-620 colon
[49] = test system: T-47D breast
[50] = test system: TK-10 renal
[51] = test system: U251 CNS
[52] = test system: UACC-257 melanoma
[53] = test system: UACC-62 melanoma
[54] = test system: UO-31 renal
[55] = test system: MALME-3M melanoma
[56] = test system: NCI-H460 lung
[57] = test system: RXF 393 renal

Measured: TGI

O=CNCCCN1CCN(CCCNC=O)CC1
9.78 µM: [38]
4.07 µM: [30]
> 100 µM: [1] | [2] | [3] | [4] | [5] | [6] | [7] | [8] | [9] | [10] | [11] | [12] | [13] | [14] | [15] | [16] | [17] | [18] | [19] | [20] | [21] | [22] | [23] | [24] | [25] | [26] | [27] | [28] | [29] | [31] | [32] | [33] | [34] | [35] | [36] | [37] | [39] | [40] | [41] | [42] | [43] | [44] | [45] | [46] | [47] | [48] | [49] | [50] | [51] | [52] | [53] | [54]

CC(C)(/C=N\O)NO
> 10 µM: [1] | [3] | [4] | [5] | [6] | [7] | [8] | [9] | [10] | [11] | [12] | [13] | [14] | [15] | [16] | [17] | [19] | [20] | [21] | [22] | [55] | [23] | [24] | [25] | [26] | [27] | [28] | [29] | [56] | [30] | [31] | [32] | [33] | [34] | [35] | [36] | [37] | [57] | [38] | [39] | [41] | [45] | [46] | [47] | [48] | [49] | [50] | [51] | [52] | [54]
